Values quoted from earlier work, collected in patent US11911505B2, “Liquid formulations of hypoglycaemic sulfonamides” (AMMTEK, priority 2012, dated 2024).
≈ marks a conversion by molar mass, not a printed value.

Conditions: 27° C.

solubility in water | Compound
48 µg/mL (≈ 148 µM) | CC(=O)c1ccc(S(=O)(=O)NC(=O)NC2CCCCC2)cc1 [acetohexamide]
38 µg/mL (≈ 77.5 µM) | CCC1=C(C)CN(C(=O)NCCc2ccc(S(=O)(=O)NC(=O)N[C@H]3CC[C@H](C)CC3)cc2)C1=O [glimepiride]
2 µg/mL (≈ 3.79 µM) | COc1ccc2c(c1)C(=O)N(CCc1ccc(S(=O)(=O)NC(=O)NC3CCCCC3)cc1)C(=O)C2(C)C [gliquidone]
